# Assay results published in patent EP4745118A1, “HYDROXAMIC ACID COMPOUND OR PHARMACEUTICALLY ACCEPTABLE SALT THEREOF, AND USE THEREOF AND PREPARATION METHOD THEREFOR” (priority 2023, dated 2025).
# Like-named read-outs stand apart in the source and are kept apart here.
# Key:
# Test in all cases: In vitro antibacterial activity, agar dilution method (MIC)
# Type in all cases: cell-based
# [1] = test system: Citrobacter freundii
# Experimental: (§1) According to the relevant operating procedures of the Clinical Laboratory Standards Institute (CLSI) in the United States, an antimicrobial susceptibility testing was conducted using the agar dilution method. […]. The agar was allowed to solidify and set aside for later use.
# (§2) The test bacteria were propagated in broth and adjusted to a turbidity of 0.5 McFarland (approximately 1-2 × 10^8 CFU/mL) using a turbidimeter before inoculation. The 0.5 McFarland bacterial solution was then diluted 10-fold in broth (approximately 1-2 × 10^7 CFU/mL). A multipoint inoculator was used to inoculate the above bacterial solution onto a series of plates containing different concentrations of drugs (with an inoculation amount of approximately 10^4 CFU per inoculation site). After incubation at a constant temperature of 35°C for 18 hours, results were observed. The minimum concentration of drugs contained in sterile growth plates was determined as the Minimal Inhibitory Concentration (MIC).
# [2] = test system: Enterobacter aerogenes
# Experimental: as §1, §2
# [3] = test system: Escherichia coli; conditions: agar dilution, 35°C
# Experimental: as §1, §2
# [4] = test system: Klebsiella pneumoniae; conditions: agar dilution, 35°C
# Experimental: as §1, §2
# [5] = test system: Pantoea agglomerans
# Experimental: as §1, §2
# [6] = test system: Proteus mirabilis
# Experimental: as §1, §2
# [7] = test system: Proteus vulgaris
# Experimental: as §1, §2
# [8] = test system: Serratia marcescens
# Experimental: as §1, §2
# [9] = test system: Enterobacter cloacae
# Experimental: According to the relevant operating procedures of the Clinical Laboratory Standards Institute (CLSI) in the United States, an antimicrobial susceptibility testing was conducted using the agar dilution method. […] The agar was allowed to solidify and set aside for later use.
# as §2
# [10] = test system: Shigella flexneri; conditions: 18 hours
# Experimental: According to the relevant operating procedures of the Clinical Laboratory Standards Institute (CLSI) in the United States, an antimicrobial susceptibility testing was conducted using the agar dilution method. A 1920 µg/mL stock solution was serially diluted twofold with sterile water to obtain dilutions of 960, 480, 240, 120, 60, 30, 15, 7.5, 3.75, 1.88, 0.94, 0.47 µg/mL, and 1 mL of the dilution was taken respectively from the dilutions with different concentrations and added to a Petri dish, to which 14 mL of melted MH agar medium was added and mixed thoroughly, and the final concentration of the drug in the petri dish is 128, 64, 32, 16, 8, 4, 2, 1, 0.5, 0.25, 0.12, 0.06, and 0.03 µ g/mL, respectively. The agar was allowed to solidify and set aside for later use.
# as §2
# [11] = test system: Pseudomonas aeruginosa
# Experimental: as §1, §2
# [12] = ATCC43864, Citrobacter freundii ATCC 43864, agar dilution, 35°C, 18 hours, read-out: MIC
# [13] = Klebsiella aerogenes, ATCC13048, Enterobacter aerogenes ATCC 13048, agar dilution, 35°C, 18 hours, read-out: MIC
# [14] = Escherichia coli, 18 h, Escherichia coli 13-43 (mcr-1), 18 hours, read-out: MIC
# [15] = Escherichia coli, 18 h, Escherichia coli 17-R28 (CRE, NDM-1-producing), 18 hours, read-out: MIC
# [16] = Escherichia coli, ATCC2469, 18 h, Escherichia coli ATCC 2469 (CRE, NDM-1-producing), 18 hours, read-out: MIC
# [17] = Escherichia coli, ATCC35218, 18 h, Escherichia coli ATCC 35218 (ESBLs-producing), 18 hours, read-out: MIC
# [18] = Klebsiella pneumoniae, 18 h, Klebsiella pneumoniae 09-20 (mcr-1), 18 hours, read-out: MIC
# [19] = Klebsiella pneumoniae, 18 h, Klebsiella pneumoniae 17-R27 (CRE), 18 hours, read-out: MIC
# [20] = Klebsiella pneumoniae, 18 h, Klebsiella pneumoniae 18-8 (ESBLs-producing), 18 hours, read-out: MIC
# [21] = Klebsiella pneumoniae, ATCC700603, 18 h, Klebsiella pneumoniae ATCC 700603 (ESBLs-producing), 18 hours, read-out: MIC
# [22] = Klebsiella pneumoniae, ATCCBAA2146, 18 h, Klebsiella pneumoniae ATCC BAA-2146 (CRE, NDM-1-producing), 18 hours, read-out: MIC
# [23] = ATCC27993, Pantoea agglomerans ATCC 27993, agar dilution, 35°C, 18 hours, read-out: MIC
# [24] = ATCC49565, Proteus mirabilis ATCC 49565, agar dilution, 35°C, 18 hours, read-out: MIC
# [25] = ATCC29905, Proteus vulgaris ATCC 29905, agar dilution, 35°C, 18 hours, read-out: MIC
# [26] = ATCC21074, Serratia marcescens ATCC 21074, agar dilution, 35°C, 18 hours, read-out: MIC
# [27] = Enterobacter cloacae CDC1000654 (NDM-1-producing), agar dilution, 35°C, 18 hours, read-out: MIC
# [28] = ATCC12022, Shigella flexneri ATCC 12022, 35°C, read-out: MIC
# [29] = Klebsiella pneumoniae, ATCCBAA2146, 18 h, Klebsiella pneumoniae ATCC BAA-2146 (CRE, NDM-1-producing), 18 hours
# [30] = Pseudomonas aeruginosa PAO1, agar dilution, 35°C, 18 hours, read-out: MIC
# [31] = Escherichia coli, 18 h, Escherichia coli 17-R28 (CRE, NDM-1-producing)
Compound,"MIC [1, 12]","MIC [2, 13]","MIC [3, 14]","MIC [3, 15]","MIC [3, 16]","MIC [3, 17]","MIC [4, 18]","MIC [4, 19]","MIC [4, 20]","MIC [4, 21]","MIC [4, 22]","MIC [5, 23]","MIC [6, 24]","MIC [7, 25]","MIC [8, 26]","MIC [9, 27]","MIC [10, 28]","MIC [4, 29]","MIC [11, 30]","MIC [3, 31]",also measured
C[C@@H](O)[C@H]1C(=O)N2C(C(=O)O)=C(SCCN=CN)C[C@H]12 [Imipenem],0.25 µg/mL,0.25 µg/mL,0.12 µg/mL,> 128 µg/mL,8 µg/mL,0.12 µg/mL,0.12 µg/mL,0.12 µg/mL,0.12 µg/mL,0.25 µg/mL,32 µg/mL,0.12 µg/mL,1 µg/mL,0.25 µg/mL,0.5 µg/mL,2 µg/mL,0.12 µg/mL,–,–,–,–
C[C@H]1COc2c(N3CCN(C)CC3)c(F)cc3c(=O)c(C(=O)O)cn1c23 [Levofloxacin],≤ 0.03 µg/mL,0.06 µg/mL,64 µg/mL,8 µg/mL,16 µg/mL,≤ 0.03 µg/mL,16 µg/mL,16 µg/mL,1 µg/mL,1 µg/mL,–,0.06 µg/mL,0.12 µg/mL,≤ 0.03 µg/mL,0.25 µg/mL,64 µg/mL,≤ 0.03 µg/mL,> 128 µg/mL,0.5 µg/mL,–,–
C[C@@H](O)[C@H]1C(=O)N2C(C(=O)O)=C(S[C@@H]3CN[C@H](C(=O)N(C)C)C3)[C@H](C)[C@H]12 [Meropenem],≤ 0.03 µg/mL,0.06 µg/mL,≤ 0.03 µg/mL,–,8 µg/mL,≤ 0.03 µg/mL,≤ 0.03 µg/mL,0.25 µg/mL,≤ 0.03 µg/mL,≤ 0.03 µg/mL,32 µg/mL,≤ 0.03 µg/mL,0.06 µg/mL,≤ 0.03 µg/mL,0.06 µg/mL,4 µg/mL,≤ 0.03 µg/mL,–,2 µg/mL,128 µg/mL,–
CN(C)c1cc(NC(=O)CNC(C)(C)C)c(O)c2c1C[C@H]1C[C@H]3[C@H](N(C)C)C(O)=C(C(N)=O)C(=O)[C@@]3(O)C(O)=C1C2=O [Tigecycline],–,–,–,–,–,0.12 µg/mL,–,–,2 µg/mL,8 µg/mL,–,–,–,–,–,–,0.12 µg/mL,8 µg/mL,–,0.12 µg/mL,"MIC ([1]; Citrobacter freundii, ATCC43864, 18 h): 1 µg/mL; MIC ([2]; Klebsiella aerogenes, ATCC13048, 18 h): 1 µg/mL; MIC ([3]; Escherichia coli, 18 h, Escherichia coli 13-43 (mcr-1)): 1 µg/mL; MIC ([3]; Escherichia coli, ATCC2469, 18 h, Escherichia coli ATCC 2469 (CRE, NDM-1-producing), 18 hours): 0.5 µg/mL; MIC ([4]; Klebsiella pneumoniae, 18 h, Klebsiella pneumoniae 09-20 (mcr-1)): 2 µg/mL; MIC ([4]; Klebsiella pneumoniae, 18 h, Klebsiella pneumoniae 17-R27 (CRE)): 2 µg/mL; MIC ([5]; Pantoea agglomerans, ATCC27993, 18 h): 0.5 µg/mL; MIC ([6]; Proteus mirabilis, ATCC49565, 18 h): 4 µg/mL; MIC ([7]; Proteus vulgaris, ATCC29905, 18 h): 2 µg/mL; MIC ([11]; Pseudomonas aeruginosa, PAO1, 18 h): 16 µg/mL; MIC ([8]; Serratia marcescens, ATCC21074, 18 h): 2 µg/mL; MIC ([9]; Enterobacter cloacae, 18 h): 8 µg/mL"
Polymyxin B,–,–,–,–,–,–,–,–,–,–,–,–,–,–,–,–,–,–,–,–,"MIC ([1]; Citrobacter freundii ATCC 43864, agar dilution, 35°C, 18 hours): 2 µg/mL; MIC ([2]; Enterobacter aerogenes ATCC 13048, agar dilution, 35°C, 18 hours): 1 µg/mL; MIC ([3]; Escherichia coli 13-43 (mcr-1), 18 hours): 8 µg/mL; MIC ([3]; Escherichia coli 17-R28 (CRE, NDM-1-producing), 18 hours): 0.5 µg/mL; MIC ([3]; Escherichia coli ATCC 2469 (CRE, NDM-1-producing), 18 hours): 1 µg/mL; MIC ([3]; Escherichia coli ATCC 35218 (ESBLs-producing), 18 hours): 0.5 µg/mL; MIC ([4]; Klebsiella pneumoniae 09-20 (mcr-1), 18 hours): 16 µg/mL; MIC ([4]; Klebsiella pneumoniae 17-R27 (CRE), 18 hours): 16 µg/mL; MIC ([4]; Klebsiella pneumoniae 18-8 (ESBLs-producing), 18 hours): 1 µg/mL; MIC ([4]; Klebsiella pneumoniae ATCC 700603 (ESBLs-producing), 18 hours): 1 µg/mL; MIC ([4]; Klebsiella pneumoniae ATCC BAA-2146 (CRE, NDM-1-producing), 18 hours): 1 µg/mL; MIC ([5]; Pantoea agglomerans ATCC 27993, agar dilution, 35°C, 18 hours): 1 µg/mL; MIC ([6]; Proteus mirabilis ATCC 49565, agar dilution, 35°C, 18 hours): >128 µg/mL; MIC ([7]; Proteus vulgaris ATCC 29905, agar dilution, 35°C, 18 hours): >128 µg/mL; MIC ([11]; Pseudomonas aeruginosa PAO1, agar dilution, 35°C, 18 hours): 2 µg/mL; MIC ([8]; Serratia marcescens ATCC 21074, agar dilution, 35°C, 18 hours): >128 µg/mL; MIC ([9]; Enterobacter cloacae CDC1000654 (NDM-1-producing), agar dilution, 35°C, 18 hours): 2 µg/mL; MIC ([10]; Shigella flexneri ATCC 12022, 35°C): 1 µg/mL"
